Source: ChEMBL document CHEMBL1201862, “PubChem BioAssay data set” (2004)
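Results reflect a 48-hour exposure of cells in 96-well plates to compound at five concentrations. GI50 = concentration required for 50% inhibition of growth.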 Active and inactive are the calls of the source. Rule as the data show it: active = GI50 up to about 1.1 µM and inactive = higher.

Columns and labels:
Assay in all cases: DTP human tumour cell line panel, 48 h
OVCAR-5 = system: OVCAR-5
SNB-19 = system: SNB-19
EKVX = system: EKVX
CAKI-1 = system: CAKI-1
UO-31 = system: UO-31
SN12C = system: SN12C
NCI-H23 = system: NCI-H23
A498 = system: A498
CCRF-CEM = system: CCRF-CEM
A549 = system: A549
OVCAR-8 = system: OVCAR-8
RXF 393 = system: RXF 393
SF-268 = system: SF-268
MOLT-4 = system: MOLT-4
HCC 2998 = system: HCC 2998
SR = system: SR
SW-620 = system: SW-620
NCI-H522 = system: NCI-H522
LOX IMVI = system: LOX IMVI

Measured: GI50

COc1cc(/C=N/c2nncs2)ccc1O
inactive: OVCAR-5 > 100 µM | SNB-19 > 100 µM | EKVX > 100 µM | CAKI-1 > 100 µM | UO-31 > 100 µM | SN12C > 100 µM | NCI-H23 > 100 µM | A498 > 100 µM | CCRF-CEM > 100 µM | A549 > 100 µM | OVCAR-8 > 100 µM | RXF 393 > 100 µM | SF-268 > 100 µM | MOLT-4 > 100 µM | HCC 2998 > 100 µM | SR > 100 µM | SW-620 > 100 µM

COC(=O)C(CC=O)C(=O)C(=O)Nc1cccc(C(F)(F)F)c1 (centres undefined)
inactive: OVCAR-5 > 100 µM | SNB-19 > 100 µM | EKVX > 100 µM | NCI-H522 > 100 µM | CAKI-1 > 100 µM | UO-31 > 100 µM | SN12C > 100 µM | NCI-H23 > 100 µM | CCRF-CEM > 100 µM | A549 > 100 µM | OVCAR-8 > 100 µM | RXF 393 > 100 µM | SF-268 > 100 µM | LOX IMVI > 100 µM | MOLT-4 > 100 µM | HCC 2998 > 100 µM | SR > 100 µM | SW-620 > 100 µM

O=C(O)CCSC(=O)Nc1ccccc1
inactive: OVCAR-5 > 100 µM | SNB-19 > 100 µM | EKVX > 100 µM | CAKI-1 > 100 µM | UO-31 > 100 µM | SN12C > 100 µM | NCI-H23 > 100 µM | A498 > 100 µM | CCRF-CEM > 100 µM | A549 > 100 µM | OVCAR-8 > 100 µM | RXF 393 > 100 µM | SF-268 44.8 µM | LOX IMVI > 100 µM | MOLT-4 > 100 µM | HCC 2998 > 100 µM | SR > 100 µM | SW-620 92.9 µM

Cc1ccc(-c2nc3ccccc3c(=O)n2NCC2(O)OCC(O)C(O)C2O)cc1 (centres undefined)
inactive: OVCAR-5 > 100 µM | SNB-19 > 100 µM | EKVX > 100 µM | NCI-H522 > 100 µM | CAKI-1 > 100 µM | UO-31 > 100 µM | SN12C > 100 µM | NCI-H23 > 100 µM | A498 > 100 µM | CCRF-CEM > 100 µM | A549 > 100 µM | OVCAR-8 > 100 µM | RXF 393 > 100 µM | SF-268 > 100 µM | LOX IMVI > 100 µM | MOLT-4 > 100 µM | SR > 100 µM | SW-620 > 100 µM

CC1CC(=O)Nc2ccc(Cl)cc2N1C(=O)CN1CCC(CCCCN(C)C)CC1 (centres undefined)
inactive: OVCAR-5 > 100 µM | SNB-19 > 100 µM | CAKI-1 > 100 µM | UO-31 > 100 µM | SN12C > 100 µM | NCI-H23 > 100 µM | A498 > 100 µM | CCRF-CEM > 100 µM | A549 > 100 µM | OVCAR-8 > 100 µM | SF-268 > 100 µM | LOX IMVI > 100 µM | MOLT-4 > 100 µM | HCC 2998 > 100 µM | SR > 100 µM | SW-620 > 100 µM

O=S1(=O)OCCOS(=O)(=O)C1I
inactive: SNB-19 77.4 µM | EKVX > 100 µM | NCI-H522 > 100 µM | CAKI-1 > 100 µM | UO-31 48.5 µM | SN12C > 100 µM | NCI-H23 > 100 µM | A498 > 100 µM | CCRF-CEM 86.9 µM | A549 > 100 µM | OVCAR-8 > 100 µM | SF-268 92.5 µM | MOLT-4 75.3 µM | HCC 2998 > 100 µM | SR 91.8 µM | SW-620 > 100 µM

Cc1cc(O)c2c(c1)C(O)(c1ccc3c(c1O)C(=O)c1c(O)cc(C)cc1C3(O)C1OC(CO)C(O)C(O)C1O)c1cccc(O)c1C2=O (centres undefined)
inactive: OVCAR-5 18.1 µM | SNB-19 16.4 µM | EKVX 14.3 µM | CAKI-1 17.7 µM | UO-31 17.7 µM | NCI-H23 15.2 µM | A498 13.6 µM | CCRF-CEM 8.34 µM | A549 18.3 µM | OVCAR-8 13.4 µM | RXF 393 12.1 µM | SF-268 20.1 µM | LOX IMVI 11.4 µM | MOLT-4 10.7 µM | HCC 2998 16 µM | SR 8.15 µM | SW-620 17.3 µM

OCC(O)C(O)C(O)c1nn(-c2ccc(Cl)cc2)c2nc3cc(Cl)c(Cl)cc3nc12 (centres undefined)
inactive: OVCAR-5 > 100 µM | SNB-19 33.7 µM | EKVX 22.8 µM | NCI-H522 27.1 µM | CAKI-1 > 100 µM | UO-31 71.6 µM | SN12C > 100 µM | NCI-H23 19.2 µM | CCRF-CEM 52.1 µM | A549 32.4 µM | OVCAR-8 22.5 µM | RXF 393 21.8 µM | SF-268 71.1 µM | LOX IMVI 39.3 µM | MOLT-4 52.5 µM | HCC 2998 60.1 µM | SR > 100 µM | SW-620 > 100 µM

CCCNCc1nc2ccc(Br)cc2c(=O)n1CCC
inactive: SNB-19 16.8 µM | EKVX 19.1 µM | NCI-H522 13.4 µM | UO-31 16.2 µM | SN12C 13.6 µM | NCI-H23 13.4 µM | A498 18.1 µM | CCRF-CEM 3.27 µM | A549 16.6 µM | OVCAR-8 13.4 µM | RXF 393 15.4 µM | SF-268 13.6 µM | LOX IMVI 4.93 µM | MOLT-4 7.8 µM | SR 11.7 µM | SW-620 13.7 µM

COc1cc(/C=C(\C#N)C(=O)c2ccccc2)cc(OC)c1OC
inactive: OVCAR-5 > 100 µM | SNB-19 > 100 µM | EKVX > 100 µM | NCI-H522 > 100 µM | CAKI-1 > 100 µM | UO-31 > 100 µM | SN12C > 100 µM | NCI-H23 > 100 µM | CCRF-CEM > 100 µM | A549 > 100 µM | OVCAR-8 > 100 µM | RXF 393 29.6 µM | SF-268 > 100 µM | LOX IMVI > 100 µM | MOLT-4 > 100 µM | HCC 2998 > 100 µM | SR > 100 µM | SW-620 > 100 µM

CN1OC2OC(=O)OC2[C@H]1[C@H]1O[C@H](c2ccccc2)OC1(C)c1cc(OC(=O)c2ccccc2)ccc1OC(=O)c1ccccc1 (some centres undefined)
inactive: OVCAR-5 > 50 µM | SNB-19 > 50 µM | EKVX > 50 µM | NCI-H522 > 50 µM | CAKI-1 > 50 µM | UO-31 > 50 µM | SN12C > 50 µM | NCI-H23 > 50 µM | CCRF-CEM > 50 µM | A549 > 50 µM | OVCAR-8 > 50 µM | RXF 393 > 50 µM | SF-268 > 50 µM | LOX IMVI > 50 µM | MOLT-4 > 50 µM | SR > 50 µM | SW-620 > 50 µM
